Measurements taken from patent US20240092779A1, “USP1 INHIBITORS AND USES THEREOF” (Zentaur Therapeutics USA Inc., priority 2022, published 2024).
Values after ≈ are worked out from the molar mass of the structure shown.

Legend:
[1] = Solubility in FaSSIF (Fasted State Simulated Intestinal Fluid); assay type: physicochemical; settings: FaSSIF pH 6.5, 25° C.; for solubility at 2 h: kinetic from dmso stock
Protocol: Solubility in FaSSIF (Fasted State Simulated Intestinal Fluid)
Certain Compounds of the Disclosure were assessed for the apparent solubility in FaSSIF.
0.420 g of NaOH, 3.438 g of NaH2PO4 and 6.186 g of NaCl were dissolved into about 900 mL ultrapure water. The solution was adjusted to the pH of 6.5 with 1N NaOH or 1N HCl. The solution was then diluted with ultrapure water to 1000 mL at room temperature. The resulting solution is used as buffer solution.
2.240 g of FaSSIF Powder was added to about 500 mL of above-mentioned buffer solution. The solution was stirred until powder was completely dissolved. Then the solution was diluted with buffer A to 1000 mL at room temperature. This solution is FaSSIF to be used in the following experiment.
15 μL of stock solution (10 mM) of each sample was placed into their proper 96-well rack. 485 μL of FaSSIF was added into each vial of the cap-less solubility sample plate. One stir stick was added to each vial and the vial was sealed using a molded PTFE/Silicone plug. The solubility sample plate was transferred to the Eppendorf Thermomixer Comfort plate shaker and shaked at 25° C. at 1100 RPM for 2 hours. After completion of the 2 hours, the stir sticks using a big magnet were removed. The samples from the solubility sample plate were transferred into the filter plate. Using the vacuum manifold, all the samples are filtered. Aliquot of 5 μL was taken from filtrate followed by addition of 5 μL DMSO and 490 μL of a mixture of H2O and acetonitrile containing internal standard (1:1).
3 μM Standards solution (STD) was prepared from the 10 mM DMSO STD plate.as following: transferring 6 μL into the remaining empty plate, adding 194 μL of DMSO to that plate to have a STD concentration of 300 μM. From the 300 μM DMSO STD plate, 5 μL solution was transferred into the remaining empty plate. Addition of 5 μL PBS and 490 μL of a mixture of H2O and acetonitrile containing internal standard (1:1) to that plate furnished a final STD concentration of 3 μM STD solution.
The samples are analyzed and quantified against the standard of known concentration using LC/MS/MS, calculating the solubility of the test compound as following (DF means the dilution factor):
[Sample solubility in FsSSIF (04)]=Area Ratio sample×DF sample×[STD]/Area Ratio STD

[2] = Liver microsomal stability (HLM); assay type: in vitro ADME; settings: human liver microsomes 0.5 mg/mL, 1 μM compound, NADPH; for microsomal CLint at 1 μM: human, liver microsomes
Protocol: Liver Microsomal Stability
Certain Compounds of the Disclosure were assessed for ADME metabolic stability in human liver microsomes (HLM).
Samples were prepared by adding 222.5 μL of a master solution (100 mM phosphate buffer and 0.5 mg/mL liver microsomes (HLM)) and 25 μL of a 10 mM NADPH solution to incubation plates, which were then warmed for 10 min. Each compound was separately dissolved in DMSO to prepare 10 mM stock solutions, which were then diluted to 100 μM with acetonitrile. A reaction was started by adding 2.5 μL of the […] solution of each compound to separate incubation plates such that the final concentration of for each compound in each plate was 1 μM. Aliquots of 30 μL were taken from the reaction solution at 0.5, 5, 15, 30 and 60 minutes. The reaction was stopped by the addition of 5 volumes of cold acetonitrile with IS (100 nM alprazolam, 200 nM caffeine and 100 nM tolbutamide). Aliquot of 100 μL of the supernatant was diluted by 100 μL ultra-pure water, and the mixture was used for LC/MS/MS analysis. Peak areas were determined from extracted ion chromatograms. […]. The percentage of remaining parent was calculated from peak area of test compound or PC. The slope value, k, is determined by linear regression of the natural logarithm of percent parent remaining vs. incubation time curve. All calculations are carried out using Microsoft Excel.
The in vitro half-life (in vitro t1/2) is determined from the slope value:
Conversion of the in vitro t1/2 (in min) into the in vitro intrinsic clearance (in vitro CLint, (HLM Clint (μL/min/mg proteins))) is done using the following equation: […]
A: HLM Clint <10 μL/min/mg; B: 10 μL/min/mg≤HLM Clint <50 μL/min/mg; C: HLM Clint ≥50 μL/min/mg.

| solubility at 2 h [1] | microsomal CLint at 1 μM [2] | Solubility in FaSSIF(μM) ([1]; 2 hours) | HLM Clint (μL/min/mg) [2] | SMILES |
| --- | --- | --- | --- | --- |
| < 10 µM | < 10 µL/min/mg |  |  | COc1ncnc(C2CC2)c1-c1ncc2ccc(=O)n(Cc3ccc(-c4nc(C(F)(F)F)cn4C(C)C)cc3)c2n1 [Compound I-4, 2-(4-Cyclopropyl-6-Methoxypyrimidin-5-Yl)-8-({4-[1-Isopropyl-4-(Trifluoromethyl)Imidazol-2-Yl]Phenyl}Methyl)Pyrido[2,3-d]Pyrimidin-7-One] |
| ≥ 100 µM | 10 to 50 µL/min/mg |  |  | COc1ncnc(C2CC2)c1-c1ncc2ccc(=O)n(Cc3ccc(-n4nc(C(F)(F)F)cc4C)cc3)c2n1 [Compound I-8, 2-(4-cyclopropyl-6-methoxypyrimidin-5-yl)-8-({4-[5-methyl-3-(trifluoromethyl)pyrazol-1-yl]phenyl}methyl)pyrido[2,3-d]pyrimidin-7-one] |
| ≥ 100 µM | 10 to 50 µL/min/mg |  |  | COc1cc(Cn2c(=O)ccc3cnc(-c4c(OC)ncnc4C4CC4)nc32)cc(F)c1-c1nc(C(F)(F)F)cn1C(C)C [Compound I-22, 2-(4-cyclopropyl-6-methoxypyrimidin-5-yl)-8-({3-fluoro-4-[1-isopropyl-4-(trifluoromethyl)imidazol-2-yl]-5-methoxyphenyl}methyl)pyrido[2,3-d]pyrimidin-7-one] |
| < 10 µM | 10 to 50 µL/min/mg |  |  | COc1ncnc(C2CC2)c1-c1ncc2ccc(=O)n(Cc3ccc(-c4nc(C(F)(F)F)cn4C(C)C)c(F)c3OC)c2n1 [Compound I-23, 2-(4-cyclopropyl-6-methoxypyrimidin-5-yl)-8-({3-fluoro-4-[1-isopropyl-4-(trifluoromethyl)imidazol-2-yl]-2-methoxyphenyl}methyl)pyrido[2,3-d]pyrimidin-7-one] |
| ≥ 100 µM | 10 to 50 µL/min/mg |  |  | COc1cc(Cn2c(=O)ccc3cnc(-c4c(OC)ncnc4C4CC4)nc32)cc(F)c1-c1nc(C(F)(F)F)cn1C1CC1 [Compound I-53] |
| < 10 µM | < 10 µL/min/mg |  |  | COc1ncnc(C2CC2)c1-c1ncc2cc(-c3cnn(C)c3)c(=O)n(Cc3ccc(-c4nc(C(F)(F)F)cn4C)cc3)c2n1 [Compound I-64] |
| ≥ 100 µM | 10 to 50 µL/min/mg |  |  | COc1ncnc(C2CC2)c1-c1ncc2nc(N3CCN(C)CC3)c(=O)n(Cc3ccc(-c4nc(C(F)(F)F)cn4C4CC4)cc3)c2n1 [Compound I-97] |
| ≥ 100 µM | 10 to 50 µL/min/mg |  |  | COc1ncnc(OC)c1-c1ncc2ccc(=O)n(Cc3ccc(-c4nc(C(F)(F)F)cn4C4CC4)cc3)c2n1 [Compound I-102] |
| < 10 µM | < 10 µL/min/mg |  |  | O=c1ccc2cnc(-c3c(OC(F)F)ncnc3C3CC3)nc2n1Cc1ccc(-c2nc(C(F)(F)F)cn2C2CC2)cc1 [Compound I-103] |
| ≥ 100 µM | < 10 µL/min/mg |  |  | COc1ncnc(C2CC2)c1-c1ncc2cc(C3=CCN(C)CC3)c(=O)n(Cc3ccc(-c4nc(C(F)(F)F)cn4C(C)C)cc3)c2n1 [Compound I-106] |
| ≥ 100 µM | < 10 µL/min/mg |  |  | COc1cc(Cn2c(=O)cnc3cnc(-c4c(OC)ncnc4C4CC4)nc32)cc(F)c1-c1nc(C(F)(F)F)cn1C(C)C [Compound I-107] |
| ≥ 100 µM | < 10 µL/min/mg |  |  | COc1ncnc(C2CC2)c1-c1ncc2cc(C(C)(C)O)c(=O)n(Cc3ccc(-c4nc(C(F)(F)F)cn4C4CC4)cc3)c2n1 [Compound I-109] |
| < 10 µM | < 10 µL/min/mg |  |  | COc1ncnc(C2CC2)c1-c1ncc2ccc(=O)n(Cc3ccc(-n4nc(C(F)(F)F)cc4OC)cc3)c2n1 [Compound I-110] |
| 10 to 100 µM (≈ 6 to 60 µg/mL) | 10 to 50 µL/min/mg |  |  | COc1cc(Cn2c(=O)ccc3cnc(-c4c(OC)ncnc4OC)nc32)cc(F)c1-c1nc(C(F)(F)F)cn1C(C)C [Compound I-113] |
| ≥ 100 µM | 10 to 50 µL/min/mg |  |  | COc1cc(Cn2c(=O)cnc3cnc(-c4c(OC)ncnc4C4CC4)nc32)ccc1-c1nc(C(F)(F)F)cn1C(C)C [Compound I-118] |
|  |  | C (Solubility ≥100 μN) | A (HLM Clint <10 μL/min/mg) | COc1cc(Cn2c(=O)cnc3cnc(-c4c(OC)ncnc4C4CC4)nc32)ccc1-c1nc(C(F)(F)F)cn1C(C)C [Compound I-119] |

| solubility at 2 h [1] | microsomal CLint at 1 μM [2] | Solubility in FaSSIF(μM) ([1]; 2 hours) | HLM Clint (μL/min/mg) [2] | SMILES |
| --- | --- | --- | --- | --- |
| ≥ 100 µM | < 10 µL/min/mg |  |  | COCCN1CCC(c2cc3cnc(-c4c(OC)ncnc4C4CC4)nc3n(Cc3ccc(-c4nc(C(F)(F)F)cn4C4CC4)cc3)c2=O)CC1 [Compound I-120] |
| ≥ 100 µM | < 10 µL/min/mg |  |  | COc1ncnc(C2CC2)c1-c1ncc2cc(C3CCN(C)CC3)c(=O)n(Cc3ccc(-n4nc(C(F)(F)F)cc4C)cc3)c2n1 [Compound I-121] |
| 10 to 100 µM (≈ 5.8 to 58 µg/mL) | < 10 µL/min/mg |  |  | COc1cc(Cn2c(=O)ccc3cnc(-c4c(OC)ncnc4C4CC4)nc32)ccc1-n1nc(C(F)(F)F)cc1OC [Compound I-122] |
| ≥ 100 µM | 10 to 50 µL/min/mg |  |  | COc1cc(Cn2c(=O)cnc3cnc(-c4c(OC)ncnc4C4CC4)nc32)ccc1-n1nc(C(F)(F)F)cc1OC [Compound I-123] |
| 10 to 100 µM (≈ 5.9 to 59 µg/mL) | < 10 µL/min/mg |  |  | COc1cc(Cn2c(=O)ccc3cnc(-c4c(OC)ncnc4C4CC4)nc32)ccc1-c1nc(C(F)(F)F)cn1C1CC1 [Compound I-124] |
| ≥ 100 µM | 10 to 50 µL/min/mg |  |  | COc1cc(Cn2c(=O)cnc3cnc(-c4c(OC)ncnc4C4CC4)nc32)ccc1-c1nc(C(F)(F)F)cn1C1CC1 [Compound I-125] |
| 10 to 100 µM (≈ 6.07 to 60.7 µg/mL) | 10 to 50 µL/min/mg |  |  | COc1cc(Cn2c(=O)ccc3cnc(-c4c(OC)ncnc4C4CC4)c(F)c32)ccc1-c1nc(C(F)(F)F)cn1C1CC1 [Compound I-126] |
| ≥ 100 µM | < 10 µL/min/mg |  |  | COc1ncnc(C2CC2)c1-c1ncc2cc(-c3cnn(C)c3)c(=O)n(Cc3ccc(-c4nc(C(F)(F)F)cn4C4CC4)cc3)c2n1 [Compound I-127] |
| 10 to 100 µM (≈ 6.54 to 65.4 µg/mL) | < 10 µL/min/mg |  |  | COc1ncnc(C2CC2)c1-c1ncc2c(C)c(-c3cnn(C)c3)c(=O)n(Cc3ccc(-c4nc(C(F)(F)F)cn4C4CC4)cc3)c2n1 [Compound I-128] |
| ≥ 100 µM | 10 to 50 µL/min/mg |  |  | COc1ncnc(C2CC2)c1-c1ncc2cc(-c3c(C)nn(C)c3C)c(=O)n(Cc3ccc(-c4nc(C(F)(F)F)cn4C4CC4)cc3)c2n1 [Compound I-129] |
| ≥ 100 µM | < 10 µL/min/mg |  |  | COc1ncnc(C2CC2)c1-c1ncc2cc(-c3cn[nH]c3)c(=O)n(Cc3ccc(-c4nc(C(F)(F)F)cn4C4CC4)cc3)c2n1 [Compound I-130] |
| ≥ 100 µM | < 10 µL/min/mg |  |  | COc1ncnc(C2CC2)c1-c1ncc2cc(-c3cnn(CCO)c3)c(=O)n(Cc3ccc(-c4nc(C(F)(F)F)cn4C4CC4)cc3)c2n1 [Compound I-131] |
| ≥ 100 µM | 10 to 50 µL/min/mg |  |  | COc1ncnc(C2CC2)c1-c1ncc2cc(-c3cnn(CCN(C)C)c3)c(=O)n(Cc3ccc(-c4nc(C(F)(F)F)cn4C4CC4)cc3)c2n1 [Compound I-132] |
| 10 to 100 µM (≈ 6.54 to 65.4 µg/mL) | 10 to 50 µL/min/mg |  |  | COc1ncnc(C2CC2)c1-c1ncc2cc(-c3c(C)cnn3C)c(=O)n(Cc3ccc(-c4nc(C(F)(F)F)cn4C4CC4)cc3)c2n1 [Compound I-133] |
| ≥ 100 µM | < 10 µL/min/mg |  |  | COc1ncnc(C2CC2)c1-c1nc(C)c2ccc(=O)n(Cc3ccc(-c4nc(C(F)(F)F)cn4C4CC4)cc3)c2n1 [Compound I-135] |
